Assay results published in US20120309699A1, “COMPOUNDS HAVING ANTI-INFLAMMATORY ACTIVITY” (Consejo Superior de Investigaciones Cientificas (CSIC), priority 2009, published 2012).
Entries after “also recorded” stand apart in the source; their conditions may differ.

How the values were obtained:
C57BL/6 mice = test: DSS (sodium dextran sulfate) model for intestinal inflammation: colon length, weight, DAI, appearance, colonic architecture; type: in vivo; conditions: for Conservation of colon length (shortening of the colon): 1% DSS for 8 days, diet supplemented with 2.3 mg/day/kg (HED 10 mg); for DAI (Disease Activity Index): 8 days with DSS and 6 days recovery; for DAI (Disease Activity Index) / General appearance of the mice / Weight change / Attenuation of damage in colonic mucosa (colonic architecture): HED 10 mg; for Rectal hemorrhage / General appearance of the mice: after 1% DSS for 8 days; for Weight change: after administration of DSS (day 21); for Attenuation of damage in colonic mucosa (colonic architecture): hematoxylin-eosin, during treatment with DSS
Description: A model for intestinal inflammation based on the administration of DSS (sodium dextran sulfate) to C57BL/6 mice was used. At the present time there is no consensus about which overall is the best model for experimental colitis. The DSS model has been widely used because it has clinical, morphological and analytical characteristics which up to a point are similar to those specific to patients with ulcerative colitis or Crohn's disease.
The in vivo inflammation test was carried out using duplicates separated by a number of months. In each test each group of animals (n=8) was fed a standard diet supplemented with 2.3 mg/day/kg (animal weight) of each of the compounds, depending upon the group. This dose assumes the ingestion of 0.05 mg/day (50 μg/day) per mouse (having a mean weight of 22 grams). This dose extrapolated to a human being is equivalent to 10 mg in an adult weighing 70 kg; using the formula HED (human equivalent dose)=animal dose in mg/kg×(animal weight kg/human weight in kg)^0.33.
In each test the mice were fed for 3 weeks during which 1% DSS was included in their drink. The DSS was maintained for 8 days (and the same food as from the start). Then the DSS was withdrawn and the animals were allowed to recover for another 6 days (again with the same food).
Groups included in the investigation: control (standard food), control-DSS, DSS-resveratrol (RES), DSS-piceid (PIC), DSS-resveratrol-diglucoside (DIGLUC), DSS-piceid-butyrate (BUT), DSS-piceid-octanoate (OCT).
• Monitoring of weight, food and drink ingestion. The mice in all groups were individually monitored, with weight, quantity of food ingested and water drunk each day being monitored throughout the experimental test. • Blood and water in feces. The water content of feces, as an indication of diarrhea, was evaluated using the difference in weight following evaporation in a stove. Blood was measured using reactive strips based on the guaiacol-peroxidase reaction (HealthCare Diagnosis Inc.). The samples were diluted 1:50 in saline solution and applied to the reactive strips. After 60 sec the color was compared with the template provided by the manufacturer. The reaction was measured using a scale from 0 (negative result) to 4 (most intense color change). • Length of colon. After sacrifice the colon was obtained from each mouse, extended and measured. Samples of the colonic mucosa for various tests mentioned below were obtained by scraping. • Myeloperoxidase activity in colonic mucosa. This was evaluated by spectrophotometry at 460 nm using O-dianisidine reagent and hydrogen peroxide. The change in absorbance at 460 nm was monitored over 10 minutes in a V-630 spectrophotometer (Jasco, Tokyo, Japan). MPO activity was expressed as mU of activity/mg of fresh tissue, comparing the increase in absorbance with a standard straight line obtained using leukocyte myeloperoxidase (Sigma). • Prostaglandins in colonic mucosa. Levels of PGE2 were measured in colonic mucosa homogenates using an immunoenzyme method using a Cayman Chem. kit (USA). • “Antibody array”. The “antibody array” kit from RayBiotech (“RayBio Mouse Inflammation Antibody Array 1”) was used to determine cytokines in colonic tissue samples. The “RayBio Mouse inflammation antibody arrays” are a fast and accurate system for determining the expression profile of multiple cytokines (in this case 40) in a very sensitive way. The sensitivity is 100 times greater than that of the ELISA method. The measurement was made in duplicate following the manufacturer's instructions. Membranes were blocked with blocking buffer and then incubated with 300 μg of protein for 2 hours. Finally the membranes were incubated with a cocktail of antibodies conjugated with biotin and then radish peroxidase marked with streptavidin. The signal was detected by chemoluminescence. Images were captured using a CCD camera fitted to a Biorad Chemidoc XRS imaging station. Signal intensities (densitometry) were analyzed using ScanAlyze software. […]

[1] = system: Listeria monocytogenes Scott A; test: Adhesion of L. monocytogenes to Caco-2 cells; type: cell-based, human; conditions: Caco-2, 25 μM/well; in comparison with resveratrol and the other derivatives
Description: We used two cell models for colon cancer to evaluate the anti-adhesion capacity of compounds derived from resveratrol against pathogenic bacteria in food: Caco-2 (a model frequently used to measure the adhesion of microorganisms) and HT-29 (a model frequently used to measure immune response to infections by enteropathogens). Caco-2 and HT-29 cells were grown in EMEM and DMEM respectively, for which 24 well plates were used at 37° C., 5% CO2, 95% air until a single layer of confluent epithelium formed (cell concentration per well 2×10^5 and 6×10^5 respectively). Pathogenic bacteria (E. coli O157, Salmonella and Listeria monocytogenes Scott A) were placed in contact with the various compounds derived from resveratrol for 1 hour and subsequently the bacteria together with the different compounds in a concentration of 25 μM/well were inoculated on the cell cultures, incubating the plates for 2 hours at 37° C., 5% CO2, 95% air. The plates were then washed 3 times with 1 ml of sterile PBS and 1 ml of distilled water with 20% of glycerol was added, and they were frozen at −70° C. to lyse the epithelial cells. […] Concentrations of the various derivatives tested were detected in the digestive tracts of experimental animals and therefore the test lay within the range of physiologically achievable concentrations.

interleukin-8 (IL-8) = test: Production of interleukin-8 in HT-29 cells inoculated with Listeria monocytogenes Scott A; type: cell-based, human; conditions: HT-29, Listeria monocytogenes Scott A; for Modulation of IL-8 production at increased dose: 50 and 100 μM; for Production of IL-8: 6 hours
Description: The human colon carcinoma cell HT-29 model was used to evaluate the ability of the compounds derived from resveratrol to modulate the production of interleukin-8 as a response to pathogenic food bacteria. […] Cell viability was observed under the microscope and the supernatants from the wells were recovered. After centrifuging (10,000 rpm/10 min) and filtering the supernatants (0.22), IL-8 was determined using the ELISA method (Human Elisa IL-8 diaclone). The concentrations of the various derivatives tested were detected in the digestive tract of experimental animals and therefore the test fell within the range of physiological achievable concentrations.

SMILES | Conservation of colon length (shortening of the colon) (C57BL/6 mice) | DAI (Disease Activity Index) (C57BL/6 mice) | Rectal hemorrhage (C57BL/6 mice) | General appearance of the mice (C57BL/6 mice) | Weight change (C57BL/6 mice) | Attenuation of damage in colonic mucosa (colonic architecture) (C57BL/6 mice) | Anti-adhesion efficacy in respect of L. monocytogenes [1] | Modulation of IL-8 production at increased dose (interleukin-8 (IL-8)) | Production of IL-8 (interleukin-8 (IL-8))
CCCC(=O)OCC1OC(Oc2cc(O)cc(/C=C/c3ccc(O)cc3)c2)C(O)C(O)C1O [BUT, trans-resveratrol-3-O-(6′-O-butanoyl)-β-D-glucopyranoside] | least shortening of the colon | much less than in the remainder | no trace of rectal hemorrhage | OCT (D)≈BUT (C)>>RES≈DIGLUC≈PIC (B)>>control-DSS (A); also recorded: better appearance than the control-DSS | maintained the same weight as the control group | best preserved colonic architecture | greater anti-adhesion efficacy | more obvious | reduced production significantly
CCCCCCCC(=O)OCC1OC(Oc2cc(O)cc(/C=C/c3ccc(O)cc3)c2)C(O)C(O)C1O [OCT, trans-resveratrol-3-O-(6′-O-octanoyl)-β-D-glucopyranoside] | least shortening of the colon | much less than in the remainder | no trace of rectal hemorrhage | OCT (D)≈BUT (C)>>RES≈DIGLUC≈PIC (B)>>control-DSS (A); also recorded: better appearance than the control-DSS | maintained the same weight as the control group | best preserved colonic architecture | greater anti-adhesion efficacy | more obvious | reduced production significantly
